Experimental data as given in the kinase profiling compilation of Christmann-Franck et al. (2016).

Tests used:
Experiment in all cases: KINOMEscan competition binding
Conditions in all cases: compound 10.0 µM
CASK (human) = CASK (human) (UniProt O14936)
CDK2 (human) = CDK2 (human) (UniProt P24941)
CDKL3 (human) = CDKL3 (human) (UniProt Q8IVW4)
CDKL5 (human) = CDKL5 (human) (UniProt O76039)
CPK1 (P.falciparum) = system: CPK1 (P.falciparum)
CRK2 (P.falciparum) = CRK2 (P.falciparum) (UniProt P61075)
CSNK1A1 (human) = CSNK1A1 (human) (UniProt P48729)
DSTYK (human) = DSTYK (human) (UniProt Q6XUX3)
EGFR (human) = EGFR (human) (UniProt P00533)
[1] = system: EGFR (human), P00533 [L861Q]
[2] = system: EGFR (human), P00533 [P753S; 747-752 del]
EIF2AK1 (human) = EIF2AK1 (human) (UniProt Q9BQI3)
ERBB3 (human) = ERBB3 (human) (UniProt P21860)
GRK1 (human) = GRK1 (human) (UniProt Q15835)
GRK4 (human) = GRK4 (human) (UniProt P32298)
GRK7 (human) = GRK7 (human) (UniProt Q8WTQ7)
HIPK2 (human) = HIPK2 (human) (UniProt Q9H2X6)
HIPK3 (human) = HIPK3 (human) (UniProt Q9H422)
HUNK (human) = HUNK (human) (UniProt P57058)
IRAK1 (human) = IRAK1 (human) (UniProt P51617)
IRAK4 (human) = IRAK4 (human) (UniProt Q9NWZ3)
MAK (human) = MAK (human) (UniProt P20794)
MAP2K5 (human) = MAP2K5 (human) (UniProt Q13163)
MAP3K13 (human) = MAP3K13 (human) (UniProt O43283)
MAP3K15 (human) = MAP3K15 (human) (UniProt Q6ZN16)
MAST1 (human) = MAST1 (human) (UniProt Q9Y2H9)
NEK11 (human) = NEK11 (human) (UniProt Q8NG66)
PIK3C2G (human) = PIK3C2G (human) (UniProt O75747)
PIK3CA (human) = PIK3CA (human) (UniProt P42336)
[3] = system: PIK3CA (human), P42336 [E545K]
[4] = system: PIK3CA (human), P42336 [H1047Y]
PIP5K1C (human) = PIP5K1C (human) (UniProt O60331)
PLK2 (human) = PLK2 (human) (UniProt Q9NYY3)
RPS6KB1 (human) = RPS6KB1 (human) (UniProt P23443)
SGK3 (human) = SGK3 (human) (UniProt Q96BR1)
STK39 (human) = STK39 (human) (UniProt Q9UEW8)
TAOK2 (human) = TAOK2 (human) (UniProt Q9UL54)
TIE1 (human) = TIE1 (human) (UniProt P35590)
VRK2 (human) = VRK2 (human) (UniProt Q86Y07)
YSK4 (human) = YSK4 (human) (UniProt Q56UN5)

Chain of TAOK2 (human) (Q9UL54 whole entry, looked up): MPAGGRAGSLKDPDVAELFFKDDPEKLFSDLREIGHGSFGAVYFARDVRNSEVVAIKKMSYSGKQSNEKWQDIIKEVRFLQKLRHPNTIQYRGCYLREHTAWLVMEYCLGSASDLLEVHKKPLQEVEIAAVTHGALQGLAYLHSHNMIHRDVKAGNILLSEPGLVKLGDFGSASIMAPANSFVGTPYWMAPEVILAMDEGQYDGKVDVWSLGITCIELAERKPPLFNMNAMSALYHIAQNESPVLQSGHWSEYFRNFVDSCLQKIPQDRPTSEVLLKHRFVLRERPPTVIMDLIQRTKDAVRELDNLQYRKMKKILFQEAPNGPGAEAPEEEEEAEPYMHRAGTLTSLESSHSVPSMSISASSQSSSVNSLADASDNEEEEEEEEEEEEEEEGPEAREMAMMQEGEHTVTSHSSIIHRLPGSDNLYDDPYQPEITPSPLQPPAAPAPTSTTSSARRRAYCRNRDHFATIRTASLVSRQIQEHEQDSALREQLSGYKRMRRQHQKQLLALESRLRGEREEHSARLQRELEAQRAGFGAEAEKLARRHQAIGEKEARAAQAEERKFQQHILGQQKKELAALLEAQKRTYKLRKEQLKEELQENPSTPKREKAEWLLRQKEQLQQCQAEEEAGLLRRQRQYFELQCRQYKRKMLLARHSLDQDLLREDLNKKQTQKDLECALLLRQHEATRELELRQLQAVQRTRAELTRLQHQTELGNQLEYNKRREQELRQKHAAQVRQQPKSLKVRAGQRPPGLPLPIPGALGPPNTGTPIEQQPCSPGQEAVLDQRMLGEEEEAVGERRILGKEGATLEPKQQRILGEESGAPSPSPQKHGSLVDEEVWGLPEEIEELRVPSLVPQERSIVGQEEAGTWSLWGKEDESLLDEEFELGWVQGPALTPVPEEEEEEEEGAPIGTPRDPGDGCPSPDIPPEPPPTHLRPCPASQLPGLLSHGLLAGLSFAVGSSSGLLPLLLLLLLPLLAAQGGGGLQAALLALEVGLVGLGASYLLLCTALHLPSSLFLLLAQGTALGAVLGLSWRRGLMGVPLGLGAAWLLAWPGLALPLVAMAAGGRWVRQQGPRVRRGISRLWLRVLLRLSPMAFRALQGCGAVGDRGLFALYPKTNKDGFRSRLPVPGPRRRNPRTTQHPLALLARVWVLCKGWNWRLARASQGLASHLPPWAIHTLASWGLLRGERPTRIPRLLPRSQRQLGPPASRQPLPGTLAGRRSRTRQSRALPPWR
Chain of GRK7 (human) (Q8WTQ7 whole entry, looked up): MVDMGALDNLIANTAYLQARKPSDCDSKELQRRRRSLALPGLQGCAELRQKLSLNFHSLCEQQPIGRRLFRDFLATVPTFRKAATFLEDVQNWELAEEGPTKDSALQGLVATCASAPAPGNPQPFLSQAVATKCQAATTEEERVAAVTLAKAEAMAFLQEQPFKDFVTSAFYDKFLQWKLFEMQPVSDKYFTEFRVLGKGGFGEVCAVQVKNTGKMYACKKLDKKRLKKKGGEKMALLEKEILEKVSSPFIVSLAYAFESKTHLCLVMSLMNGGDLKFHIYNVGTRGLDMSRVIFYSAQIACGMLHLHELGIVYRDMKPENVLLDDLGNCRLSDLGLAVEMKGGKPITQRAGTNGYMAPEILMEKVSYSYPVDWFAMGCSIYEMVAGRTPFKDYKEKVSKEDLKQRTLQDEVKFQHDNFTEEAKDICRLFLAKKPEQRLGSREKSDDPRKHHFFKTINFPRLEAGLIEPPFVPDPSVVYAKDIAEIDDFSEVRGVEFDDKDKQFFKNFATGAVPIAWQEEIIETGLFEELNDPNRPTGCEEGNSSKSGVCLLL
Chain of TIE1 (human) (P35590 whole entry, looked up): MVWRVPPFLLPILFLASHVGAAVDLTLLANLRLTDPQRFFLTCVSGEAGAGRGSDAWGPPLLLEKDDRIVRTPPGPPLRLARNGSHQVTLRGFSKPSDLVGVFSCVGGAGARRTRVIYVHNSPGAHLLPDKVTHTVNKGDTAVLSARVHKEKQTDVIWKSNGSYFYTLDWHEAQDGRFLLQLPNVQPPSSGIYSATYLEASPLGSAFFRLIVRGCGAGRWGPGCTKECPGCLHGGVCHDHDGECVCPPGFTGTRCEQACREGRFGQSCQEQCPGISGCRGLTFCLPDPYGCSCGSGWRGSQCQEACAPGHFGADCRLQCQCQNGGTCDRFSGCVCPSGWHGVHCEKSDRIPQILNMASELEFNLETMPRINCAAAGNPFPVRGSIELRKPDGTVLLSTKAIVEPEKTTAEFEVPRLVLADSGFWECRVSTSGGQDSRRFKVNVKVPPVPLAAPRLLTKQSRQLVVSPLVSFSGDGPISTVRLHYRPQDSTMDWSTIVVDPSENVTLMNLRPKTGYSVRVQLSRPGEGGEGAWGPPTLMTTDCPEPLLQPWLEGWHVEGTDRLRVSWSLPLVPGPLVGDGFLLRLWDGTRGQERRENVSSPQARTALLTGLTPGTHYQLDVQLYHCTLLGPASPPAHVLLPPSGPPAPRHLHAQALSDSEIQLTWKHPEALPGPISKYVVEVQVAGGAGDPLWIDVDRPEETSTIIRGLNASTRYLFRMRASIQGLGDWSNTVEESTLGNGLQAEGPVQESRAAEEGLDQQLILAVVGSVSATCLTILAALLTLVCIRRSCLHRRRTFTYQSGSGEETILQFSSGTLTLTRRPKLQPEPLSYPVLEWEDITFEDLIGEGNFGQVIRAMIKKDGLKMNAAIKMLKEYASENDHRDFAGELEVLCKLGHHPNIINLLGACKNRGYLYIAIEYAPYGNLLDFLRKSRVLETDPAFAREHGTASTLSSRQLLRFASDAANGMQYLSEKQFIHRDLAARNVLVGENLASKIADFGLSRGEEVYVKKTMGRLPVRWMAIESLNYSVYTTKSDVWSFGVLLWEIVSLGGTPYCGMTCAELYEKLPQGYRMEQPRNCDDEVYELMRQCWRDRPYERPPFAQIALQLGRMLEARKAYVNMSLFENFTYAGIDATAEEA
Chain of PIK3C2G (human) (O75747 whole entry, looked up): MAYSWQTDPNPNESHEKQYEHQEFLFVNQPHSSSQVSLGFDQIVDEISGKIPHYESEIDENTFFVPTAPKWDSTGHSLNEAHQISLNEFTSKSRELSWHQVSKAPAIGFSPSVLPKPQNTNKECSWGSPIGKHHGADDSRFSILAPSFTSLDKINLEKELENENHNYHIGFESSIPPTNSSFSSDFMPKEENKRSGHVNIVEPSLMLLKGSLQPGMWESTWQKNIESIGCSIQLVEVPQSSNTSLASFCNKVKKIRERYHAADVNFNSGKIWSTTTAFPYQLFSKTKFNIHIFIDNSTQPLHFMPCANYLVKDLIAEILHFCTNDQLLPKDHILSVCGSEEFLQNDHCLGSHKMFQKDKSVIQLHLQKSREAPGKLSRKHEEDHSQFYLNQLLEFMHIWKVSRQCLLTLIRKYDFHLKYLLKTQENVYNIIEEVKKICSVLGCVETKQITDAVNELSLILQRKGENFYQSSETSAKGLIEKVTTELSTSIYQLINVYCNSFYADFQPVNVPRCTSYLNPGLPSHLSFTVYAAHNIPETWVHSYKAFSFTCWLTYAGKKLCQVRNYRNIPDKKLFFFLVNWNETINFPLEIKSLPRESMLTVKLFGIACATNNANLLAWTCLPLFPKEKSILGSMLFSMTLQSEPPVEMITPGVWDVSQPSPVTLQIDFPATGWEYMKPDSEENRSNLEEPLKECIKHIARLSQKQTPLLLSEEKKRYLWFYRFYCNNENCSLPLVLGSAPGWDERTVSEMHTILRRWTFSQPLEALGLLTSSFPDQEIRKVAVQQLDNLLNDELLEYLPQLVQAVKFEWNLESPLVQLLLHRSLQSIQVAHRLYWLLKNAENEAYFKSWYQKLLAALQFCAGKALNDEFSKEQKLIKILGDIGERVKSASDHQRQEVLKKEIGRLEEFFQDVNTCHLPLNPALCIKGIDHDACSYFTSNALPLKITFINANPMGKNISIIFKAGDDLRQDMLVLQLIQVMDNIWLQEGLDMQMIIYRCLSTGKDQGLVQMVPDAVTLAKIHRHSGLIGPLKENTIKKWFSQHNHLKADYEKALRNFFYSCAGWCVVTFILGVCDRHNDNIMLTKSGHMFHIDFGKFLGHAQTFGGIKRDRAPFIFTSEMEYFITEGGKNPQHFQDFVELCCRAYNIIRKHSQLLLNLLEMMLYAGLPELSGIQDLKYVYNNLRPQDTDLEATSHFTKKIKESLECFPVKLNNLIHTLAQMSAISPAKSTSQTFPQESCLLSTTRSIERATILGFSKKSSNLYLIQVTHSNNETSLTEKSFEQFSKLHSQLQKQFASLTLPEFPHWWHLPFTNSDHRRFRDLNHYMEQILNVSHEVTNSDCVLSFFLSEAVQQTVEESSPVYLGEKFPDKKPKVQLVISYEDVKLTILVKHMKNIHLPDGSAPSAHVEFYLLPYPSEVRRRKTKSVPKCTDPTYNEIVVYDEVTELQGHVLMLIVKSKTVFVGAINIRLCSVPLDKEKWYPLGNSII
Chain of CSNK1A1 (human) (P48729 whole entry, looked up): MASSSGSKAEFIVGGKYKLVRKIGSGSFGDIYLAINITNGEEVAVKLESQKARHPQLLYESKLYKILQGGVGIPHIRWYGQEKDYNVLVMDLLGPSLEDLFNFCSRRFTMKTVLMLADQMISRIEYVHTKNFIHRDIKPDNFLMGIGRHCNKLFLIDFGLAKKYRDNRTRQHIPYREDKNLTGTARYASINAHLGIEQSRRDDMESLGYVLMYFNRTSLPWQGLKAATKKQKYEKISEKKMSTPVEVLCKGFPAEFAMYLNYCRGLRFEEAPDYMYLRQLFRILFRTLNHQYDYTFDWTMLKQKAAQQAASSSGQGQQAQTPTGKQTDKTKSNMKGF
Chain of CRK2 (P.falciparum) (P61075 whole entry, looked up): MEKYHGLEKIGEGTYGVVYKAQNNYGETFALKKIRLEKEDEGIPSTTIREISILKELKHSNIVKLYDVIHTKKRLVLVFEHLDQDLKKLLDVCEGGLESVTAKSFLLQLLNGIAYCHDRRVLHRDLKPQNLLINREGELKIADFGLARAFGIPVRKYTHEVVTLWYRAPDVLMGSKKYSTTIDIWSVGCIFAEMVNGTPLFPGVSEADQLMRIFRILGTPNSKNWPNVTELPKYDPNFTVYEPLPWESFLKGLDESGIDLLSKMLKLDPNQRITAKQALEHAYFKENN

Row | SMILES | kinase still bound, per cent of control (CASK (human)) [%] | kinase still bound, per cent of control (CDK2 (human)) [%] | kinase still bound, per cent of control (CDKL3 (human)) [%] | kinase still bound, per cent of control (CDKL5 (human)) [%] | kinase still bound, per cent of control (CPK1 (P.falciparum)) [%] | kinase still bound, per cent of control (CRK2 (P.falciparum)) [%] | kinase still bound, per cent of control (CSNK1A1 (human)) [%] | kinase still bound, per cent of control (DSTYK (human)) [%] | kinase still bound, per cent of control (EGFR (human)) [%] | kinase still bound, per cent of control [1] [%] | kinase still bound, per cent of control [2] [%] | kinase still bound, per cent of control (EIF2AK1 (human)) [%] | kinase still bound, per cent of control (ERBB3 (human)) [%] | kinase still bound, per cent of control (GRK1 (human)) [%] | kinase still bound, per cent of control (GRK4 (human)) [%] | kinase still bound, per cent of control (GRK7 (human)) [%] | kinase still bound, per cent of control (HIPK2 (human)) [%] | kinase still bound, per cent of control (HIPK3 (human)) [%] | kinase still bound, per cent of control (HUNK (human)) [%] | kinase still bound, per cent of control (IRAK1 (human)) [%] | also measured
1 | CN(C)C/C=C/C(=O)Nc1cccc(Nc2ncc3c(n2)N(C)c2ccccc2C(=O)N3C)c1 | 39 | 94 | 100 | 100 | 74 | 100 | 26 | 18 | 69 | 73 | 100 | 100 | 89 | 100 | 66 | 100 | 89 | 85 | 47 | 19 | kinase still bound, per cent of control (IRAK4 (human)): 73%; kinase still bound, per cent of control (MAK (human)): 100%; kinase still bound, per cent of control (MAP2K5 (human)): 45%; kinase still bound, per cent of control (MAP3K13 (human)): 40%; kinase still bound, per cent of control (MAP3K15 (human)): 69%; kinase still bound, per cent of control (MAST1 (human)): 100%; kinase still bound, per cent of control (NEK11 (human)): 77%; kinase still bound, per cent of control (PIK3C2G (human)): 76%; kinase still bound, per cent of control (PIK3CA (human)): 54%; kinase still bound, per cent of control [3]: 100%; kinase still bound, per cent of control [4]: 51%; kinase still bound, per cent of control (PIP5K1C (human)): 11%; kinase still bound, per cent of control (PLK2 (human)): 37%; kinase still bound, per cent of control (RPS6KB1 (human)): 63%; kinase still bound, per cent of control (SGK3 (human)): 90%; kinase still bound, per cent of control (STK39 (human)): 100%; kinase still bound, per cent of control (TAOK2 (human)): 0%; kinase still bound, per cent of control (TIE1 (human)): 5.4%; kinase still bound, per cent of control (VRK2 (human)): 73%; kinase still bound, per cent of control (YSK4 (human)): 6.2%
2 | CCN1CCN(Cc2ccc(Nc3ncc4c(n3)N(C)c3ccccc3C(=O)N4C)cc2C(F)(F)F)CC1 | 15 | 68 | 100 | 100 | 74 | 100 | 16 | 7.1 | 73 | 98 | 79 | 100 | 75 | 78 | 56 | 73 | 100 | 76 | 59 | 25 | kinase still bound, per cent of control (IRAK4 (human)): 100%; kinase still bound, per cent of control (MAK (human)): 100%; kinase still bound, per cent of control (MAP2K5 (human)): 35%; kinase still bound, per cent of control (MAP3K13 (human)): 53%; kinase still bound, per cent of control (MAP3K15 (human)): 74%; kinase still bound, per cent of control (MAST1 (human)): 100%; kinase still bound, per cent of control (NEK11 (human)): 100%; kinase still bound, per cent of control (PIK3C2G (human)): 17%; kinase still bound, per cent of control (PIK3CA (human)): 25%; kinase still bound, per cent of control [3]: 24%; kinase still bound, per cent of control [4]: 3.3%; kinase still bound, per cent of control (PIP5K1C (human)): 24%; kinase still bound, per cent of control (PLK2 (human)): 100%; kinase still bound, per cent of control (RPS6KB1 (human)): 48%; kinase still bound, per cent of control (SGK3 (human)): 86%; kinase still bound, per cent of control (STK39 (human)): 100%; kinase still bound, per cent of control (TAOK2 (human)): 0.1%; kinase still bound, per cent of control (TIE1 (human)): 22%; kinase still bound, per cent of control (VRK2 (human)): 100%; kinase still bound, per cent of control (YSK4 (human)): 80%
